Measured values taken from paper PMC10323112 (Cancer Science, 2023).

Legend:
NCI-H358 (KRAS^G12C) = assay: Proliferation assay; type: cell-based, human; conditions: NCI-H358 (Figure S2D)
[1] = tested on: p-AKT in NCI-H358 (KRAS^G12C, PIK3CA^WT) cells; assay: Basal p-AKT assay; type: cell-based, human; conditions: NCI‐H358 (KRAS^G12C, PIK3CA^WT) cell line
[2] = tested on: p-AKT in NCI-H1993 (KRAS^WT, PIK3CA^WT) cells; assay: Basal p-AKT assay; type: cell-based, human; conditions: NCI‐H1993 (KRAS^WT, PIK3CA^WT) cell line
NCI-H1993 (KRAS^WT) = assay: Proliferation assay; type: cell-based, human; conditions: NCI-H1993 (Figure S2D)
in vitro [3] = type: in vitro ADME; conditions: CD-1, mouse, brain homogenate
in vitro [4] = conditions: human, Caco-2
[5] = 30 mg/kg
in vivo = conditions: female, Balbc nude, mouse, 30 mg/kg
in vitro [6] = conditions: CD-1, mouse, plasma

| fraction unbound at 5 h, 1 μM (in vitro [3]) | Papp A→B at 120 min, 10 μM (in vitro [4]) | Unbound brain AUC ([5]; AUCbrain × fu,brain) | Unbound plasma AUC ([5]; AUCplasma × fu,plasma) | AUC (in vivo) | Kp uu (in vivo) | fraction unbound at 5 h, 1 μM (in vitro [6]) | SMILES | inhibitory effect on cell proliferation (NCI-H358 (KRAS^G12C)) | effect on p‐AKT level [1] | effect on p‐AKT level [2] | inhibitory effect on cell proliferation (NCI-H1993 (KRAS^WT)) |
| --- | --- | --- | --- | --- | --- | --- | --- | --- | --- | --- | --- |
| – | – | – | – | – | – | – | C[C@H](Nc1ccc2c(c1)OCCn1cc(N3C(=O)OC[C@H]3C(F)F)nc1-2)C(N)=O [GDC-0077] | very weak inhibitory effect | reduced | reduced | very weak inhibitory effect |
| 0.001 | 0.8 ×10⁻⁶ cm/s | 0.0009 µM·h | 0.089 µM·h | 44.3 µM·h | 0.01 | 0.002 | C=C(F)C(=O)N1CCN(c2nc(OC[C@@H]3CCCN3C)nc3c2CCN(c2cccc4cccc(Cl)c24)C3)C[C@@H]1CC#N [Adagrasib, adagrasib] | – | – | – | – |
